In patent publication US20250375441A1, “ONCOLYTIC THERAPY WITH A DUAL HDAC3 AND HDAC8 TARGETING AGENT” (priority 2024, published 2025):

Columns and labels:
HDAC2 = HDAC2 (Homo sapiens, UniProt Q92769); experiment: ZEBRA flow cytometry in cells overexpressing FLAG-HDAC2; conditions: HH514-16, 1 μM YX968 or 3 mM NaB, 24 hours after treatment, N=3
EBV = EBV viral load by qPCR for BALF5, normalized to 18S; assay type: cell-based; conditions: HH514-16, 1 μM YX968 for 18 hours, then ganciclovir 40 μM; vs no ganciclovir, N=2
Protocol: Ganciclovir was then added at a concentration of 40 μM. Cells were then centrifuged, DNA was extracted, and qPCR for BALF5—a single copy EBV gene—was then used to determine the viral load of EBV in the cells. The ribosomal gene 18S was used as the control to normalize for the number of cells collected. […] N=2 biological replicates.

[1] = tested on: EBV-positive HH514-16 Burkitt lymphoma cell line; experiment: ZEBRA staining by flow cytometry (EBV lytic reactivation); assay type: cell-based; conditions: HH514-16, varying concentrations, 24 hours, vs DMSO (0.1%)
Source text: Cells were harvested, fixed and permeabilized, stained with a monoclonal antibody to the viral latent-to-lytic switch protein ZEBRA (Bam Z EBV Replication Activator), and examined by flow cytometry. ZEBRA is an early lytic protein of EBV, encoded by BZLF1, that drives the lytic cascade. Cells were stained in parallel with an isotype-matched control antibody for placement of gates.

[2] = tested on: EBV-positive HH514-16 Burkitt lymphoma cell line; experiment: qPCR of late lytic gene BFRF3; assay type: cell-based; conditions: HH514-16, varying concentrations, 48 hours, vs DMSO (0.1%), N=3
Protocol: Cells were harvested, RNA was extracted, RNA was converted to cDNA, and qPCR was performed. Expression of BFRF3, a late lytic gene, is increased (FIG. 2). […] Progression of the lytic cycle to late lytic gene expression indicates availability of the early gene product needed to activate ganciclovir. N=3 biological replicates.

BZLF1 promoter = experiment: H3K27Ac chromatin immunoprecipitation and qPCR at the BZLF1 promoter; conditions: HH514-16, 1 μM, 12 hours, vs DMSO (0.1%)
HDAC1 = HDAC1 (Homo sapiens, UniProt Q13547); experiment: ZEBRA flow cytometry in cells overexpressing HDAC1-FLAG; conditions: HH514-16, 1 μM YX968, 24 hours after treatment, N=3
Chain of HDAC1 (Q13547 whole entry): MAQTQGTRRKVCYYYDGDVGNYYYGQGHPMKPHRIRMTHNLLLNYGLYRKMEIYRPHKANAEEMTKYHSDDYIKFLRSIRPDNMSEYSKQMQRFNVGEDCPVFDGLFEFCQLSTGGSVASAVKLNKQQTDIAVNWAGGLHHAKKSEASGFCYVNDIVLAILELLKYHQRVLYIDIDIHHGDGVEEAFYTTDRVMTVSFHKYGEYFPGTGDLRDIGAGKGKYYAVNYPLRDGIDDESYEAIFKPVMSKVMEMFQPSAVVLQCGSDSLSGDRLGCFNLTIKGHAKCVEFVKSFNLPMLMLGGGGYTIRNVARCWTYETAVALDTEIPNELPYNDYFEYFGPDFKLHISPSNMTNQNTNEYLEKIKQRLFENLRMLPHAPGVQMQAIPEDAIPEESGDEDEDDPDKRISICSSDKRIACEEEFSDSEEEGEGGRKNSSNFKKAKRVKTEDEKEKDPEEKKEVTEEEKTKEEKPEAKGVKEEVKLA

[3] = tested on: lymphoma cell line BC1 latently infected with KSHV; assay type: cell-based
HH514-16 cells = experiment: Cell death after exposure; assay type: cell-based; conditions: 1 μM, 72 hours, vs DMSO (0.1%), N=2

Chain of HDAC2 (Q92769 whole entry): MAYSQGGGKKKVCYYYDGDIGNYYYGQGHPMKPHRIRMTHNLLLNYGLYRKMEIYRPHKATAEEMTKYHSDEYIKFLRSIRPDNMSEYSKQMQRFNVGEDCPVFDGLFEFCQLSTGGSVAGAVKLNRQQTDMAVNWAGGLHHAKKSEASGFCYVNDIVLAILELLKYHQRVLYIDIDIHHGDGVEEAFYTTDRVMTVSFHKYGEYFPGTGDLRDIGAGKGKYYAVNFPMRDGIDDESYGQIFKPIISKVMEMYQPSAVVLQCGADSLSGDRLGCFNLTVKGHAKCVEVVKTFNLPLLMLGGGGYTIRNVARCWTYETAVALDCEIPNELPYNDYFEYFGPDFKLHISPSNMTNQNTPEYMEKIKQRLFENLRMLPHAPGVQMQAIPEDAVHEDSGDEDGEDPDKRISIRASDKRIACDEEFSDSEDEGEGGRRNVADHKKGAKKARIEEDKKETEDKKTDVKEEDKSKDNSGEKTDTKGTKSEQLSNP

Row | Structure (SMILES) | ZEBRA expression post-induction, HDAC2 overexpressing vs not overexpressing cells (HDAC2) | viral load of EBV (EBV) | levels of ZEBRA (EBV switching to lytic phase) [1] | expression of BFRF3, a late lytic gene [2] | amount of acetylated H3K27 at the BZLF1 promoter (fold enrichment vs control IgG) (BZLF1 promoter) | number of cells that expressed ZEBRA, HDAC1 overexpressing (FLAG positive) vs FLAG negative (HDAC1) | expression of immediate early gene RTA [3] | cells left alive (HH514-16 cells)
1 | CCCC(=O)[O-].[Na+] [NaB, sodium butyrate, reference compound] | less likely to express ZEBRA | – | – | – | – | – | – | –
2 | Nc1nc(O)c2ncn(COC(CO)CO)c2n1 [ganciclovir] | – | significantly lower | – | – | – | – | – | –
3 | CCCNNC(=O)c1ccc(N2CCN(CCCCCCCC(=O)N[C@H](C(=O)N3C[C@H](O)C[C@H]3C(=O)N[C@@H](C)c3ccc(-c4scnc4C)cc3)C(C)(C)C)CC2)cc1 [YX968] | less likely to express ZEBRA | – | increased levels of ZEBRA | increased | statistically significant increase | no significant change | increases in expression | significantly fewer cells left alive
